# Assay results from US20080014133A1, “Extraction Of Radionuclides By Crown Ether-Containing Extractants” (priority 2004, published 2008).
# What was measured:
# Assay type in all cases: physicochemical
# [1] = Concentration of crown ether in extracted products, dynamic cesium extraction (7.2)
# Text: (§1) The scheme of the process and the conditions of extraction of cesium by the method according to the invention are similar to those described above in 7.1, but the organic phase for extraction of cesium includes solutions DB21C7 in a concentration of about 0.05 mol/l in an organic solvent containing synthanol in an amount of 5% by volume and Fluoroheptanol n3 in an amount of about 95% by volume.
# (§2) During the operation of the experimental facility radiometric monitoring devices were used to control the concentration of strontium in the refined products, re-extracts and reclaims, as well as the concentration of the crown ethers in the extracted products. The technological characteristics of the process and solubility of the crown ether (averaged values of several experiments) are given in Table 16.
# [2] = Behaviour of crown ether in decane extraction system (Table 1 remarks); conditions: crown ether 0.1 mole/l in Decane
# Procedure: (§3) Study was carried out for determining the distribution ratios of radionuclides, for example, strontium or cesium to be extracted by the extractants according to the invention containing various crown ethers as a complexing agent: bis(tert-butylbenzo)-18-crown-6 (subsequently referred to as DTBDB18C6), di-isooctylbenzo-18-crown-6 (subsequently referred to as DIODB18C6), bis(tert-butylcyclohexane-18-crown-6 (subsequently referred to as DTBDCH18C6), di-isooxyldicyclohexane-18-crown-6 (subsequently referred to as DIODCH18C6), bicyclohexane-18-crown-6 (subsequently referred to as DCH18C6) or dibenzo-21-crown-7 (subsequently referred to as DB21C7), in an organic solvent according to the invention: polyfluorinated telomeric alcohol 1,1,7-trihydrododecafluoroheptanol-1 (subsequently referred to as fluoroheptanol n3).
# (§4) For comparison, the distribution ratios of strontium and cesium were determined using extractants containing similar crown ethers in another organic solvent (decane).
# (§5) Taken for the tests were experimental aqueous nitrate solutions containing strontium and cesium in a concentration of 1 g/l with a content of nitric acid of about 3.0 mol/l.
# [3] = Extraction of cesium under dynamic conditions (7.2)
# Text: as §1, §2
# [4] = Influence of nitric acid concentration on cesium extraction from solution No.1; conditions: for Distribution ratios of cesium: solution No.1
# Text: The dependence of extraction of cesium by organic solutions DTBDB18C6 in fluoropentanol n3 and DB21C7 in Fluoroheptanol n3 at a concentration of nitric acid in a starting solution was studied. Solution No.1 whose composition is listed in Table 2 was used as a starting solution.
# [5] = Distribution ratio of strontium extracted in organic solutions of crown ethers (Table 1); conditions: crown ether 0.1 mole/l in Fluoroheptanol n3; Sr and Cs 1 g/l, nitric acid about 3.0 mol/l
# Procedure: as §3, §4, §5
# [6] = Concentration of crown ether in extracted products, dynamic strontium extraction (7.1)
# Text: A starting aqueous solution whose composition and concentration of the components are given in Table 3 for a solution No.1 was contacted with the extractant according to the invention containing 0.05 mole/l of DCH18C6 in a solvent containing 20% by volume of synthanol and 80% by volume of Fluoroheptanol n3 in a continuous countercurrent process on a facility with extractors such as “mixer-settler” devices with impulse agitation and phase transportation. The extraction included eight steps of extraction, two washing steps, eight re-extraction steps and two steps of regeneration of the reused extractant.
# When running the facility, radiometric monitoring devices were used to control the concentration of strontium in the refined products, re-extracts and reclaims, as well as the concentration of the crown ethers in the extracted products.
compound,measurement,setting,value
"c1ccc2c(c1)OCCOCCOCCOc1ccccc1OCCOCCO2 [DB21C7, dibenzo-21-crown-7]",Concentration of the crown ether in the extracted products,[1]; Re-extract,53 Mg/l
same,Concentration of the crown ether in the extracted products,[1]; Reclaim,18 Mg/l
same,Concentration of the crown ether in the extracted products,[1]; Refined product,27 Mg/l
same,Remarks,[2],Is insoluble
same,Content of cesium in the extracted products in percent of the feedstock,[3]; Re-extract,94.5% of the feedstock
same,Content of cesium in the extracted products in percent of the feedstock,[3]; Reclaim,4.15% of the feedstock
same,Content of cesium in the extracted products in percent of the feedstock,"[3]; Refined product, 0.05 mol/l DB21C7, Synthanol 5% / Fluoroheptanol n3 95%, solution No.1",1.35% of the feedstock
same,Cesium yield in a saltless product,[3]; dynamic conditions 7.2,about 95%
same,Extraction of cesium,[3]; dynamic conditions 7.2,> 98%
same,Concentration of nitric acid at the maximum of cesium extraction,[4],~3.0 mol/l
same,Distribution ratios of cesium,"[4]; nitric acid 0 mol/l, Fluoroheptanol n3",0.25
same,Distribution ratios of cesium,[4]; nitric acid 0.1 mol/l,1.0
same,Distribution ratios of cesium,[4]; nitric acid 0.5 mol/l,3.2
same,Distribution ratios of cesium,[4]; nitric acid 1.0 mol/l,7.8
same,Distribution ratios of cesium,[4]; nitric acid 2.0 mol/l,10.2
same,Distribution ratios of cesium,[4]; nitric acid 3.0 mol/l,12.2
same,Distribution ratios of cesium,[4]; nitric acid 4.0 mol/l,11.4
same,Distribution ratios of cesium,[4]; nitric acid 5.0 mol/l,10.0
same,Distribution ratios of cesium,[4]; nitric acid 6.0 mol/l,8.0
same,Distribution ratios of cesium,[4]; nitric acid 7.0 mol/l,6.2
same,Distribution ratios of cesium,[4]; nitric acid 8.0 mol/l,5.0
"C1CCC2OCCOCCOC3CCCCC3OCCOCCOC2C1 (stereo not shown) [DCH18C6, bicyclohexane-18-crown-6]",Distribution ratio Strontium,[5],1.6
same,Concentration of crown ether in the extracted products,[6]; Re-extract,172 Mg/l
same,Concentration of crown ether in the extracted products,[6]; Reclaim,30 Mg/l
same,Concentration of crown ether in the extracted products,[6]; Refined product,80 Mg/l
